Test results: patent US10919903B2, “Nitrogen-containing heterocyclic compounds as FXR modulators” (Hepagene Therapeutics (HK) Limited, priority 2016, dated 2021)

Assays:
FXR = target: T1, FXR (Homo sapiens, UniProt Q96RI1); test: FXR Transactivation Assay (GAL4 luciferase reporter, pBIND-FXR in HEK293T); type: cell-based; conditions: HEK293T cells
T1 construct: expressed in transfected cells; host or cells: HEK293T
T1 sequence (Q96RI1 1-486): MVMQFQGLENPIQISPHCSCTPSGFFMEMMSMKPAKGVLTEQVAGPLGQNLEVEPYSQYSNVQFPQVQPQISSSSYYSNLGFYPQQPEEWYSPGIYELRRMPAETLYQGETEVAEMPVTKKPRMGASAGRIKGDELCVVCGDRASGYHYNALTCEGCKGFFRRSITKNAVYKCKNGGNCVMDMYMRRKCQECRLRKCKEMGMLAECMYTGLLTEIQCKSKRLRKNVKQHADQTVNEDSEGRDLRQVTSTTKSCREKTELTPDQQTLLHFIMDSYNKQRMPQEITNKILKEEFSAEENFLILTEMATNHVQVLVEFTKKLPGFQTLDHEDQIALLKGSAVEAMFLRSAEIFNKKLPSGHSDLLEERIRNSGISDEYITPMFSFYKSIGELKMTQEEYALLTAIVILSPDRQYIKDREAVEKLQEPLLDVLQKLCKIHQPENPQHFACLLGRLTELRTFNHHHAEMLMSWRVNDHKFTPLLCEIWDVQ
Method: FXR Transactivation Assay
pGL4.35 [luc2P/9XGAL4 UAS/Hygro]
Steady-Glo™ Luciferase Assay System
GW4064 as a positive control
(§1) • 1. Hek293T cells were plated at 1.1*10^6/ml into a 100 mm dish. • 2. […] Cells were incubated at 37° C. under 5% CO2 atmosphere. • 3. All of compounds were 3-fold serial diluted from 10 mM stock for 10 doses in DMSO. • 4. Transfer compound dilutions into 384 well assay plates using liquid workstation. • 5. Seed 25 ul HEK293T cells into 384 well assay plate (prepared step 4) at 0.6*10^5/ml. Cells were incubated at 37° C. under 5% CO2 atmosphere overnight. • 6. Add 25 ul steady-Glo™ Luciferase Assay Reagent into each well of 384-well assay plate. • 7. […] Calculate EC50 by fitting % Activity values and log of compound concentrations to nonlinear regression (dose response−variable slope) with Graphpad 5.0. FXR Coactivator Assay Reagents: LanthaScreen™ TR-FRET Farnesoid X Receptor Coactivator Assay GW4064 as a positive control Process: • 1. All of compounds were 3-fold serial diluted from 10 mM stock for 10 doses in DMSO. • 2. Dilute each 100× agonist serial dilution to 2× using Complete Coregulator buffer G. • 3. Transfer 10 μl of each of the 2× agonist serial dilutions to 384 well assay plates. • 4. Add 5 μl of 4×FXR-LBD to 384 well assay plates. • 5. […] Incubate at room temperature protected from light. • 7. […] Calculate EC50 by fitting % Activity values and log of compound concentrations to nonlinear regression (dose response−variable slope) with Graphpad 5.0.

FXR-LBD = target: T2, FXR-LBD (Homo sapiens, UniProt Q96RI1); test: FXR Coactivator Assay (LanthaScreen TR-FRET); type: biochemical
T2 construct: Add 5 μl of 4×FXR-LBD to 384 well assay plates; purchased
T2 sequence (Q96RI1 262-486 limits assumed): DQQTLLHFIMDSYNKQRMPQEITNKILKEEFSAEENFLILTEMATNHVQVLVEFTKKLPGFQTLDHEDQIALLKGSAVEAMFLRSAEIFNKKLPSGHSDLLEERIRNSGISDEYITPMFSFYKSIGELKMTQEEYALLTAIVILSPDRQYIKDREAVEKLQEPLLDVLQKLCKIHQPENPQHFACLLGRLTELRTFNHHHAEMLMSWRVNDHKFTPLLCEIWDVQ
Method: as §1

EC50 (FXR) [nM]	EC50 (FXR-LBD) [nM]	SMILES
101 to 400	10 to 100	COc1cc(C(=O)O)cc2sc(N3CCN(Cc4c(-c5c(Cl)cccc5Cl)noc4C4CC4)CC3C)nc12 (stereo not drawn) [II-11]
10 to 100	10 to 100	COc1cc(C(=O)O)cc2sc(N3CCN(Cc4c(-c5c(Cl)cccc5Cl)noc4C4CC4)CC3C)nc12 (stereo not drawn) [II-13]
101 to 400	10 to 100	COc1cc(C(=O)O)cc2sc(N3CCCN(Cc4c(-c5c(Cl)cccc5Cl)noc4C(C)C)CC3)nc12 [II-40]
	101 to 400	COc1cc(C(=O)O)cc2sc(C3CCN(Cc4c(-c5c(Cl)cccc5Cl)noc4C(C)C)CC3)nc12 [II-47, 2-(1-((3-(2,6-Dichlorophenyl)-5-isopropylisoxazol-4-yl)methyl)piperidin-4-yl)-4-methoxybenzo[d]thiazole-6-carboxylic acid]
101 to 400	10 to 100	COc1cc(C(N)=O)cc2sc(N3CCN(Cc4c(-c5c(Cl)cccc5Cl)noc4C(C)C)CC3)nc12 [VIII-01]
101 to 400		COc1cc(C(N)=O)cc2sc(N3CCN(Cc4c(-c5c(Cl)cncc5Cl)noc4C4CC4)C[C@H]3C)nc12 [VIII-03, 2-[(2R)-4-[[5-Cyclopropyl-3-(3,5-dichloropyridin-4-yl)-1,2-oxazol-4-yl]methyl]-2-methylpiperazin-1-yl]-4-methoxy-1,3-benzothiazole-6-carboxamide]
401 to 5000		COc1cc(C(N)=O)cc2nc(N3CCN(Cc4c(-c5c(Cl)cccc5Cl)noc4C4CC4)C[C@@H]3C)sc12 [VIII-04, (S)-2-(4-((5-Cyclopropyl-3-(2,6-dichlorophenyl)isoxazol-4-yl)methyl)-2-methylpiperazin-1-yl)-7-methoxybenzo[d]thiazole-5-carboxamide]

Second part, the compound before the results:

SMILES	EC50 (FXR) [nM]	EC50 (FXR-LBD) [nM]
COc1cc(C(=O)O)cc2sc(N3CCN(Cc4c(C(C)C)cnn4-c4c(Cl)cccc4Cl)CC3)nc12 [II-03, 2-(4-[[1-(2,6-Dichlorophenyl)-4-(propan-2-yl)-1H-pyrazol-5-yl]methyl]piperazin-1-yl)-4-methoxy-1,3-benzothiazole-6-carboxylic acid]	101 to 400	10 to 100
COc1cc(C(=O)O)cc2sc(N3CCN(Cc4c(-c5c(Cl)cccc5Cl)noc4C(C)C)CC3(C)C)nc12 [II-16]	101 to 400	10 to 100
CCC1CN(Cc2c(-c3c(Cl)cccc3Cl)noc2C(C)C)CCN1c1nc2c(OC)cc(C(=O)O)cc2s1 (stereo not drawn) [II-18]	10 to 100	10 to 100
CCC1CN(c2nc3c(OC)cc(C(=O)O)cc3s2)CCN1Cc1c(-c2c(Cl)cccc2Cl)noc1C(C)C (stereo not drawn) [II-20]	101 to 400	10 to 100
COc1cc(C(=O)O)cc2sc(N3CCN(Cc4c(-c5c(Cl)cccc5Cl)noc4C(C)C)C(C)(C)C3)nc12 [II-22, 2-(4-[[3-(2,6-Dichlorophenyl)-5-(propan-2-yl)-1,2-oxazol-4-yl]methyl]-3,3-dimethylpiperazin-1-yl)-4-methoxy-1,3-benzothiazole-6-carboxylic acid]	101 to 400	10 to 100
COc1cc(C(=O)O)cc2sc(N3CCN(Cc4c(-c5c(Cl)cccc5Cl)noc4C(C)C)C(C)C3)nc12 (stereo not drawn) [II-24]	10 to 100	10 to 100
COc1cc(C(=O)O)cc2sc(N3CCN(Cc4c(-c5c(Cl)cccc5Cl)noc4C(C)C)C4(CC4)C3)nc12 [II-30]	101 to 400	10 to 100
COc1cc(C(=O)O)cc2sc(N3CCC(Cc4c(-c5c(Cl)cccc5Cl)noc4C(C)C)CC3)nc12 [II-43]	101 to 400	10 to 100
COc1cc(C(=O)O)cc2sc(N3CC=C(Cc4c(-c5c(Cl)cccc5Cl)noc4C4CC4)C[C@H]3C)nc12 [II-46, 2-[(2R)-4-[[5-Cyclopropyl-3-(2,6-dichlorophenyl)-1,2-oxazol-4-yl]methyl]-2-methyl-1,2,3,6-tetrahydropyridin-1-yl]-4-methoxy-1,3-benzothiazole-6-carboxylic acid]		10 to 100
CC(C)c1cc(C(=O)O)cc2sc(N3CCN(Cc4c(-c5c(Cl)cccc5Cl)noc4C4CC4)C[C@H]3C)nc12 [VII-01, (R)-2-(4-((5-Cyclopropyl-3-(2,6-dichlorophenyl)isoxazol-4-yl)methyl)-2-methylpiperazin-1-yl)-4-isopropylbenzo[d]thiazole-6-carboxylic acid]	10 to 100	10 to 100
